Here are results for 36 compounds from US8030298B2, “17β-HSD1 and STS inhibitors” (Abbott Products GmbH, priority 2005, dated 2011).

This test deals with T1, recombinant human 17β-hydroxysteroid dehydrogenase type 1 (Homo sapiens, UniProt P14061).
T1 construct: made in house; host or cells: Sf9 insect cells (baculovirus, Bac to Bac Expression System)
T1 sequence (P14061 1-328): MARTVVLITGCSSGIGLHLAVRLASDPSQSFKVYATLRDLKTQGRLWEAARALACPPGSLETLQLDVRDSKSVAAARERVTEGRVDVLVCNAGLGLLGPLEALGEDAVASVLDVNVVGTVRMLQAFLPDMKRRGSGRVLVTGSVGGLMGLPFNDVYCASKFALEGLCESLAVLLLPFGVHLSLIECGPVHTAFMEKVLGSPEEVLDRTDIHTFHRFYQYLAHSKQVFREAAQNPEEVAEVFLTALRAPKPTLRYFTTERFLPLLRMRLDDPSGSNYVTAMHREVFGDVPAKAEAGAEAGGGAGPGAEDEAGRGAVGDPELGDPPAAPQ
Briefly: Inhibition of recombinant human 17β-hydroxysteroid dehydrogenase type 1 (3H-estrone to estradiol conversion, HPLC). Conditions: read-out: Inhibition of rec. 17β-HSD1 (% inhibition); for inhibition at 1 µM: 0.5 h, inhibitor concentration 1 μm; for inhibition at 0.1 µM: inhibitor concentration 100 nM. It counts as biochemical. Here is the method: 17β-HSD1 purification: Recombinant baculovirus was generated by the “Bac to Bac Expression System” (Invitrogen). Recombinant bacmid was transfected to Sf9 insect cells using “Cellfectin Reagent” (Invitrogen). 60 h later cells were harvested; the microsomal fraction was isolated as described by Puranen et al. (1994). Aliquots were stored frozen until determination of enzymatic activity.
Assay—Inhibition of recombinant human 17β-hydroxysteroid dehydrogenase type 1: Recombinant protein (0.1 μg/ml) was incubated in 20 mM KH2PO4 pH 7.4 with 30 nM 3H-estrone and 1 mM NADPH for 30 min at RT, in the presence of potential inhibitors at concentrations of 1 μM or 0.1 μM. Inhibitor stock solutions were prepared in DMSO. Final concentration of DMSO was adjusted to 1% in all samples. The enzyme reaction was stopped by addition of 10% trichloroacetic acid (final concentration). Samples were centrifuged in a microtiter plate at 4000 rpm for 10 min. Supernatants were applied to reverse phase HPLC on a Waters Symmetry C18 column, equipped with a Waters Sentry Guard column. Isocratic HPLC runs were performed at RT at a flow rate of 1 ml/min of acetonitrile:water 48:52 as running solvent. Radioactivity was monitored in the eluate by a Packard Flow Scintillation Analyzer. Total radioactivity for estrone and estradiol were determined in each sample and percent conversion of estrone to estradiol was calculated according to the following formula:
Percent inhibition was calculated as follows: % inhibition=100−% conversion

For `COc1cc2c(cc1O)CC[C@H]1[C@@H]3[C@@H](CCCC(=O)N4CCCCC4)CC(=O)[C@H]3CC[C@H]21` [Compound 78], the inhibition at 1 µM came to 72% and the inhibition at 0.1 µM turned out to be 40.6%.

On to `COc1cc2c(cc1O)CC[C@H]1[C@@H]3[C@@H](CCCC(=O)Nc4ccc5cn[nH]c5c4)CC(=O)[C@@]3(C)CC[C@H]21` [Compound 83], for which the inhibition at 1 µM turned out to be 71.6% and the inhibition at 0.1 µM was 53.9%.

`CCCc1cc2c(cc1O)CC[C@H]1[C@@H]3[C@H](CCCC(=O)NCc4ccc5c(c4)OCO5)CC(=O)[C@@]3(C)CC[C@H]21` [Compound 30]: the inhibition at 0.1 µM stood at 39.8%.

For `Cc1cnc(NC(=O)CC[C@@H]2CC(F)(F)[C@@]3(C)CC[C@@H]4c5ccc(O)cc5CC[C@H]4[C@H]23)s1` [Example 93, 3-(17,17-Difluoro-3-hydroxy-estra-1,3,5(10)-trien-15β-yl)-N-(5-methyl-thiazol-2-yl)-propionamide], the inhibition at 0.1 µM was 59.5%.

Regarding `CCN(CC)C(=O)CC[C@@H]1CC(F)(F)[C@@]2(C)CC[C@@H]3c4ccc(O)cc4CC[C@H]3[C@H]12` [Compound 133], the inhibition at 0.1 µM stood at 71.4%.

On to `C[C@]12CC[C@@H]3c4ccc(O)cc4CC[C@H]3[C@@H]1[C@H](CCC(=O)NCc1ccccc1)CC2(F)F` [Compound 125], for which the inhibition at 0.1 µM was found to be 29.2%.

Turning to `CCCc1cc2c(cc1O)CC[C@H]1[C@@H]3[C@H](CCCC(=O)NCc4ccc(F)cc4F)CC(=O)[C@@]3(C)CC[C@H]21` [Compound 42], the inhibition at 0.1 µM is 53.3%.

Regarding `CCCc1cc2c(cc1O)CC[C@H]1[C@@H]3[C@H](CCCC(=O)N(C)CCc4ccc(OC)c(OC)c4)CC(=O)[C@@]3(C)CC[C@H]21` [Compound 38], the inhibition at 0.1 µM is 51%.

For the compound `C[C@]12CC[C@@H]3c4ccc(O)cc4CC[C@H]3[C@@H]1[C@H](CCC(=O)NCc1ccc3c(c1)OCO3)CC2(F)F` [Compound 122], the inhibition at 0.1 µM is 34%.

`Cc1cccc2c(CCNC(=O)CC[C@@H]3CC(F)(F)[C@@]4(C)CC[C@@H]5c6ccc(O)cc6CC[C@H]5[C@H]34)c[nH]c12` [Compound 129]: the inhibition at 0.1 µM was 33.1%.

In the case of `CCOc1cc2c(cc1O)CC[C@H]1[C@@H]3[C@@H](CCCC(=O)NC4CCCCC4)CC(=O)[C@@]3(C)CC[C@H]21` [Compound 44], the inhibition at 0.1 µM was 55.5%.

Take `COc1cc2c(cc1O)CC[C@H]1[C@@H]3[C@@H](CCCC(=O)NCc4ccccc4)CC(=O)[C@@]3(C)CC[C@H]21` [Compound 71]: the inhibition at 1 µM worked out at 70.6% and the inhibition at 0.1 µM stood at 45.8%.

Regarding `C[C@]12CC[C@@H]3c4ccc(O)cc4CC[C@H]3[C@@H]1[C@H](CCC(=O)N1CCCCC1)CC2(F)F` [Compound 131], the inhibition at 0.1 µM was found to be 19.8%.

For the compound `COc1cc(CNC(=O)CC[C@@H]2CC(F)(F)[C@@]3(C)CC[C@@H]4c5ccc(O)cc5CC[C@H]4[C@H]23)cc(OC)c1` [Compound 128], the inhibition at 0.1 µM turned out to be 21.2%.

For the compound `C[C@]12CC[C@@H]3c4ccc(O)cc4CC[C@H]3[C@@H]1[C@@H](CCCC(=O)NC1CCCCC1)CC2(F)F` [Compound 102], the inhibition at 1 µM worked out at 70.6% and the inhibition at 0.1 µM was 41.6%.

Regarding `C[C@]12CC[C@@H]3c4ccc(O)cc4CC[C@H]3[C@@H]1[C@H](CCC(=O)NCc1ccc(O)c(O)c1)CC2(F)F` [Compound 127], the inhibition at 0.1 µM amounted to 21.1%.

On to `C[C@]12CC[C@@H]3c4ccc(O)cc4CC[C@H]3[C@@H]1[C@H](CCC(=O)NC1CC1)CC2(F)F` [Compound 120], for which the inhibition at 0.1 µM was 37.3%.

As for `CCCc1cc2c(cc1O)CC[C@H]1[C@@H]3[C@H](CCCC(=O)NCc4cccnc4)CC(=O)[C@@]3(C)CC[C@H]21` [Compound 32], the inhibition at 0.1 µM was 50%.

Consider `C[C@]12CC[C@@H]3c4ccc(OCc5ccccc5)cc4CC[C@H]3[C@@H]1[C@H](C/C=C/C(=O)N1CCOCC1)c1cnoc12` [161′], for which the inhibition at 0.1 µM was 21%.

In the case of `CCOc1cc2c(cc1O)CC[C@H]1[C@@H]3[C@@H](CCCC(=O)NCCc4c[nH]c5c(C)cccc45)CC(=O)[C@@]3(C)CC[C@H]21` [Compound 52], the inhibition at 1 µM was 72.2% and the inhibition at 0.1 µM came out at 50%.

`Cc1cccc2c(CCNC(=O)CCC[C@H]3CC(F)(F)[C@@]4(C)CC[C@@H]5c6ccc(O)cc6CC[C@H]5[C@H]34)c[nH]c12` [Compound 111]: the inhibition at 1 µM was 68.3% and the inhibition at 0.1 µM came to 50.6%.

On to `CCCc1cc2c(cc1O)CC[C@H]1[C@@H]3[C@H](CCCC(=O)NCCc4c[nH]c5c(C)cccc45)CC(=O)[C@@]3(C)CC[C@H]21` [Compound 34], for which the inhibition at 0.1 µM is 68.8%.

Consider `CCCc1cc2c(cc1O)CC[C@H]1[C@@H]3[C@H](CCCC(=O)Nc4ccc5cn[nH]c5c4)CC(=O)[C@@]3(C)CC[C@H]21` [Compound 40], for which the inhibition at 0.1 µM came out at 72%.

Turning to `CCCc1cc2c(cc1O)CC[C@H]1[C@@H]3[C@H](CCCC(=O)N(C)Cc4ccccc4)CC(=O)[C@@]3(C)CC[C@H]21` [Compound 37], the inhibition at 0.1 µM stood at 64%.

Turning to `CCOc1cc2c(cc1O)CC[C@H]1[C@@H]3[C@@H](CCCC(=O)Nc4ccc5cn[nH]c5c4)CC(=O)[C@@]3(C)CC[C@H]21` [Compound 59], the inhibition at 1 µM is 69.7% and the inhibition at 0.1 µM worked out at 56.1%.

`C[C@]12CC[C@@H]3c4ccc(O)cc4CC[C@H]3[C@@H]1[C@@H](CCCC(=O)N1CCCCC1)CC2(F)F` [Compound 113]: the inhibition at 1 µM stood at 76.9% and the inhibition at 0.1 µM was determined as 47.2%.

As to `CCCc1cc2c(cc1O)CC[C@H]1[C@@H]3[C@H](CCCC(=O)N4CCCCC4)CC(=O)[C@@]3(C)CC[C@H]21` [Compound 36], the inhibition at 0.1 µM was 56.9%.

Regarding `CCCc1cc2c(cc1O)CC[C@H]1[C@@H]3[C@H](CCCC(=O)NCc4ccccc4)CC(=O)[C@@]3(C)CC[C@H]21` [Example 2, N-Benzyl-4-(3-hydroxy-17-oxo-2-propyl-estra-1,3,5(10)-trien-15β-yl)-butyramide], the inhibition at 0.1 µM turned out to be 54.8%.

Take `COc1cc2c(cc1O)CC[C@H]1[C@@H]3[C@@H](CCCC(=O)NC4CCCCC4)CC(=O)[C@@]3(C)CC[C@H]21` [Compound 67]: the inhibition at 1 µM was 73.2% and the inhibition at 0.1 µM worked out at 42.5%.

Turning to `C[C@]12CC[C@@H]3c4ccc(O)cc4CC[C@H]3[C@@H]1[C@@H](CCCC(=O)N1CCOCC1)CC2(F)F` [Example 91, 4-(17,17-Difluoro-3-hydroxy-estra-1,3,5(10)-trien-15α-yl)-1-morpholin-4-yl-butan-1-one], the inhibition at 0.1 µM was found to be 32%.

`C[C@]12CC[C@@H]3c4ccc(O)cc4CC[C@H]3[C@@H]1[C@H](CCCC(=O)N1CCOCC1)CC2(F)F` [Example 90]: the inhibition at 0.1 µM worked out at 63.5%.

As for `CCOc1cc2c(cc1O)CC[C@H]1[C@@H]3[C@@H](CCCC(=O)NCc4ccc5c(c4)OCO5)CC(=O)[C@@]3(C)CC[C@H]21` [Compound 45], the inhibition at 0.1 µM turned out to be 54%.

As for `C[C@]12CC[C@@H]3c4ccc(O)cc4CC[C@H]3[C@@H]1[C@@H](CCCC(=O)NCc1ccccc1)CC2(F)F` [Compound 106], the inhibition at 1 µM is 68% and the inhibition at 0.1 µM worked out at 36.7%.

Consider `C[C@]12CC[C@@H]3c4ccc(OS(N)(=O)=O)cc4CC[C@H]3[C@@H]1[C@H](CCCC(=O)N1CCOCC1)CC2=O` [Example 163, 3-Sulphamate-15β-(4-morpholin-4-yl-4-oxo-butyl)-estra-1,3,5(10)-trien-17-one], for which the inhibition at 1 µM stood at 43% and the inhibition at 0.1 µM was 10%.

Take `CCCc1cc2c(cc1O)CC[C@H]1[C@@H]3[C@H](CCCC(=O)N4CCOCC4)CC(=O)[C@@]3(C)CC[C@H]21` [Example 6, 3-Hydroxy-15β-(4-morpholin-4-yl-4-oxo-butyl)-2-propyl-estra-1,3,5(10)-trien-17-one]: the inhibition at 0.1 µM was 37.9%.

For `C[C@]12CC[C@@H]3c4ccc(O)cc4CC[C@H]3[C@@H]1[C@@H](CCCC(=O)NCc1ccc(O)c(O)c1)CC2(F)F` [Compound 109], the inhibition at 1 µM is 70.7% and the inhibition at 0.1 µM is 35.1%.
